The nature of data set [1]: degradation time in vivo of ω-oxidation blocked analogue. The source says: ω-oxidation is believed to be the main pathway for degradation of the fatty acid entities as described with a block in the X position. Experiments were thus performed where R′ was changed to block ω-oxidation, by introducing a triple bond at the methyl end of the fatty acid analogue. […] This is important for the use of the fatty acid entities in pharmaceutical preparation, as it may potentiate the effects of the β-oxidizable fatty acid entities by further slowing down their breakdown.

In data set [2] the test system is mitochondrial β-oxidation in the liver. The data set can be described thus: activity of mitochondrial β-oxidation in the liver of fatty acid analogues. In kind it is biochemical. An excerpt: Although all fatty acid anagoges with an odd positioning of the β-oxidation blocker X away from the carboxylic end block β-oxidation, the extent of their biological effect may be variable. This is due to the difference in biological degradation time of the various compounds. The inventors have done experiments to show the effect of moving X further from the carboxylic fatty acid end. In these experiments the activity (in nmol/min/mg/protein) of mitochondrial β-oxidation in the liver of fatty acid analogues was measured with sulphur in the 3, 5 and 7 positions relative to the carboxyl end. The activities were 0.81 for sulphur in the 3rd position, 0.61 for sulphur in the 5th position, 0.58 for sulphur in the 7th position, and 0.47 for palmitic acid, the non β-oxidation blocking control. […] However, as the decline is great for going from the 3rd to 5th position, but small going from the 5th to 7th position, it is reasonable to assume that this decline will continue to be less as one moves out the chain and thus that it will be very far out indeed before no effect (compared to the control) is seen at all.

The structures appear in SMILES notation.

Consider `CC#CCCCCCCCCCCCSCC` [3-thia-15-heptadecyn], for which the “degradation time in vivo” value in data set [1] is on record as “substantially increased degradation time in vivo”.

Consider `CCCCCCCCCCCCCCCC(=O)O` [palmitic acid], for which the “activity of mitochondrial β-oxidation in the liver” value in data set [2] worked out at 0.47 nmol/min/mg/protein.

The record behind these values is patent US7659242B2, “Composition comprising protein material and compounds comprising non-oxidizable fatty acid entities” (Thia Medica AS, priority 2004, dated 2010).
